Data reported in patent publication US20200101068A1, “Heteroaryl Derivatives as PARP Inhibitors” (Lupin Limited, priority 2015, published 2020).

What follows are compounds tested against T1, PARP1 (Homo sapiens, UniProt P09874) (assay: PARP1 biochemical assay (BPS Bioscience kit, chemiluminescent)). Settings: histone-coated plate, biotinylated NAD+, 60 min at 25° C., luminescence; read-out: PARP 1 inhibition IC50.
T1 construct: purchased BPS Bioscience
Experimental: Example 16: PARP1 Biochemical Assay
The assay was performed using BPS Bioscience kit. The 96-well strip plate was coated with 50 μl of histone mixture and incubated at 4° C. overnight. The next day, the wells were blocked by adding 100 μl of blocking buffer. The plate was washed and 25 μl of appropriate concentration of PARP1 (25-75 ng/well) was added in all of the Test and Positive control wells. In the Negative control wells, the enzyme was replaced with 25 μl of water. 5 μl each of 10× PARP assay buffer and activated DNA was added in all the wells (Test, Positive and Negative control wells). 10× concentration of the test compounds were prepared and 5 μl test compounds were added to the respective wells. The reaction volume was made up to 45 μl by adding water to all of the wells. 5 μl of 10× PARP assay mixture containing biotinilated NAD^+ was added in each well and the plate was incubated at ambient temperature (25° C.) for 60 min. After washing the plate 50 μl of Streptavidin-HRP was added in each well, the plate was incubated at RT for 30 min. The plate was washed and the luminescence was read in PHERAStar plate reader after adding 100 μl of chemiluminescent substrate.
PARP inhibition was calculated using the following formula:
% PARP inhibition=100−[(RLU test compound treated sample−RLU negative control)/(RLU Positive control−RLU negative control)×100]
IC50 values were calculated by plotting % inhibition against the respective concentrations of test compounds using GraphPad Prism 5.

T1 sequence (P09874 whole entry): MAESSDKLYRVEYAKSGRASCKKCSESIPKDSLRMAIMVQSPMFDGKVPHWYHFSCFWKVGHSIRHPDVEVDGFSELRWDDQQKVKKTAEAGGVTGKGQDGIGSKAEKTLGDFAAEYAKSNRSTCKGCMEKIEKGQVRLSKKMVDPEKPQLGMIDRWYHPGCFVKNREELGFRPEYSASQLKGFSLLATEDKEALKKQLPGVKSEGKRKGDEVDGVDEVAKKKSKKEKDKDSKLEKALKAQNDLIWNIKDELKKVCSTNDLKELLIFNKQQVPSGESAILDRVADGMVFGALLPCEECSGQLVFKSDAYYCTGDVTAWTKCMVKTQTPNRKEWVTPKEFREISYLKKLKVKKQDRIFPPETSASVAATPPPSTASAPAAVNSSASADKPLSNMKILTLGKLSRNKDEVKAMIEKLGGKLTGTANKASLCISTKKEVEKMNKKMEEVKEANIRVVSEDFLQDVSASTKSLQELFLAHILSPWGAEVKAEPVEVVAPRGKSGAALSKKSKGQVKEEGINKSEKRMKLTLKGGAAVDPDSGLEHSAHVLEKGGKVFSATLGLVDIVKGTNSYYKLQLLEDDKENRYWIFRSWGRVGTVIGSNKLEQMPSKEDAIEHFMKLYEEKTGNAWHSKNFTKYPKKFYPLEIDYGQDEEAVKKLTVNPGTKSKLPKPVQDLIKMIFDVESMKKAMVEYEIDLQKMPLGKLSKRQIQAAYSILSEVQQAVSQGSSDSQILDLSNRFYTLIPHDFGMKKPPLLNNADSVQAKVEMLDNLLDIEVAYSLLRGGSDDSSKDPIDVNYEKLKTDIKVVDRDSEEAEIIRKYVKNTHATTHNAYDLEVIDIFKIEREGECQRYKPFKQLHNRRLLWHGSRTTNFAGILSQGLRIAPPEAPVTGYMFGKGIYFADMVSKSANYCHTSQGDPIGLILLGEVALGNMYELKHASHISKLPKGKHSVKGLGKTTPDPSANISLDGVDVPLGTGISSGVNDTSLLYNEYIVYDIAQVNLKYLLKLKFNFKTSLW

First: C[C@@H]1CN(c2ccc(C#N)cc2)CCN1[C@@H]1C=C(c2cc3ncccc3c(=O)[nH]2)CC1 (racemic) [Compound 15, 4-((R)-3-methyl-4-((S/R)-3-(5-oxo-5,6-dihydro-1,6-naphthyridin-7-yl)cyclopent-2-en-1-yl)piperazin-1-yl)benzonitrile]
Second: C[C@@H]1CN(c2ccc(C#N)cc2)CCN1C1C=C(c2cc3ncccc3c(=O)[nH]2)CC1 (single isomer, unassigned) [Compound 14]
The IC50 of the first is higher: 5.1 to 50 nM for the first, 0.5 to 5 nM for the second. The second is the more potent here.

First: N#Cc1ccc(N2CCN([C@@H]3C=C(c4cc5ncccc5c(=O)[nH]4)CC3)CC2)cc1 [Compound 4, (S)-4-(4-(3-(5-oxo-5,6-dihydro-1,6-naphthyridin-7-yl)cyclopent-2-en-1-yl)piperazin-1-yl)benzonitrile]
Second: N#Cc1ccc(N2CCN([C@H]3C=C(c4cc5ncccc5c(=O)[nH]4)CC3)CC2)cc1 [Compound 1, (R)-4-(4-(3-(5-oxo-5,6-dihydro-1,6-naphthyridin-7-yl)cyclopent-2-en-1-yl)piperazin-1-yl)benzonitrile]
The IC50 of the first is higher: 5.1 to 50 nM for the first, 0.5 to 5 nM for the second. The second is the more potent here.

O=c1[nH]c(C2=C[C@H](N3CCN(c4ccccc4)CC3)CC2)cc2ncccc12 [Compound 21, (R)-7-(3-(4-phenylpiperazin-1-yl)cyclopent-1-en-1-yl)-1,6-naphthyridin-5(6H)-one] and Cc1ccc(N2CCN([C@H]3C=C(c4cc5ncccc5c(=O)[nH]4)CC3)CC2)cc1 [Compound 26, (R)-7-(3-(4-(p-tolyl)piperazin-1-yl)cyclopent-1-en-1-yl)-1,6-naphthyridin-5(6H)-one] fall in the same range of IC50: 0.5 to 5 nM for the first, 0.5 to 5 nM for the second.

First: N#Cc1ccc(N2CCN([C@H]3C=C(c4cc5nccnc5c(=O)[nH]4)CC3)CC2)cc1 [Compound 41, (R)-4-(4-(3-(5-oxo-5,6-dihydropyrido[3,4-b]pyrazin-7-yl)cyclopent-2-en-1-yl)piperazin-1-yl)benzonitrile]
Second: N#Cc1ccc(N2CCN([C@H]3C=C(c4cc5cccnc5c(=O)[nH]4)CC3)CC2)cc1 [Compound 37, (R)-4-(4-(3-(8-oxo-7,8-dihydro-1,7-naphthyridin-6-yl)cyclopent-2-en-1-yl)piperazin-1-yl)benzonitrile]
The IC50 of the first is higher: 5.1 to 50 nM for the first, 0.5 to 5 nM for the second. The second is the more potent here.

N#Cc1ccc(N2C[C@@H]3C[C@H]2CN3C2C=C(c3cc4ncccc4c(=O)[nH]3)CC2)cc1 (single isomer, unassigned) [Compound 16] and N#Cc1ccc(N2CCN([C@H]3C=C(c4cc5ncccc5c(=O)[nH]4)CC3)CC2=O)cc1 [Compound 13, (R)-4-(2-oxo-4-(3-(5-oxo-5,6-dihydro-1,6-naphthyridin-7-yl)cyclopent-2-en-1-yl)piperazin-1-yl)benzonitrile] fall in the same range of IC50: 5.1 to 50 nM for the first, 5.1 to 50 nM for the second.

Compared with N#Cc1ccc(N2CCN([C@@H]3CC[C@@H](c4cc5ncccc5c(=O)[nH]4)C3)CC2)cc1 (single isomer, unassigned) [Compound 12], Cc1c(C2=C[C@@H](N3CCN(c4ccc(C#N)cc4)CC3)CC2)[nH]c(=O)c2cccnc12 [Compound 10, (S)-4-(4-(3-(8-methyl-5-oxo-5,6-dihydro-1,6-naphthyridin-7-yl)cyclopent-2-en-1-yl)piperazin-1-yl)benzonitrile] is lower in IC50: 5.1 to 50 nM for the first, 0.5 to 5 nM for the second.

First: O=c1[nH]c(C2=C[C@H](N3CCN(c4ccc(F)cc4)CC3)CC2)cc2sccc12 [Compound 47, (R)-6-(3-(4-(4-fluorophenyl)piperazin-1-yl)cyclopent-1-en-1-yl)thieno[3,2-c]pyridin-4(5H)-one]
Second: N#Cc1ccc(N2CCN([C@@H]3C=C(c4cc5sccc5c(=O)[nH]4)CC3)CC2)cc1 [Compound 45, (S)-4-(4-(3-(4-oxo-4,5-dihydrothieno[3,2-c]pyridin-6-yl)cyclopent-2-en-1-yl)piperazin-1-yl)benzonitrile]
The IC50 of the first is lower: 0.5 to 5 nM for the first, 5.1 to 50 nM for the second. The first is the more potent here.

NC(=O)c1ccc(N2CCN([C@H]3C=C(c4cc5ncccc5c(=O)[nH]4)CC3)CC2)cc1 [Compound 19, (R)-4-(4-(3-(5-oxo-5,6-dihydro-1,6-naphthyridin-7-yl)cyclopent-2-en-1-yl)piperazin-1-yl)benzamide] and COc1ccc(N2CCN([C@H]3C=C(c4cc5ncccc5c(=O)[nH]4)CC3)CC2)cc1 [Compound 25, (R)-7-(3-(4-(4-methoxyphenyl)piperazin-1-yl)cyclopent-1-en-1-yl)-1,6-naphthyridin-5(6H)-one] fall in the same range of IC50: 0.5 to 5 nM for the first, 0.5 to 5 nM for the second.

N#Cc1ccc(N2CCN([C@H]3C=C(c4cc5cccn5c(=O)[nH]4)CC3)CC2)cc1 [Compound 54, (R)-4-(4-(3-(1-oxo-1,2-dihydropyrrolo[1,2-c]pyrimidin-3-yl)cyclopent-2-en-1-yl)piperazin-1-yl)benzonitrile] and O=c1[nH]c(C2=C[C@H](N3CCN(c4ccc(F)cc4)CC3)CC2)cc2cccn12 [Compound 55, (R)-3-(3-(4-(4-fluorophenyl)piperazin-1-yl)cyclopent-1-en-1-yl)pyrrolo [1,2-c]pyrimidin-1(2H)-one] fall in the same range of IC50: 0.5 to 5 nM for the first, 0.5 to 5 nM for the second.

O=C1NCc2cc(N3CCN([C@H]4C=C(c5cc6ncccc6c(=O)[nH]5)CC4)CC3)ccc21 [Compound 32, (R)-7-(3-(4-(1-oxoisoindolin-5-yl)piperazin-1-yl)cyclopent-1-en-1-yl)-1,6-naphthyridin-5(6H)-one] and O=C1OCc2cc(N3CCN([C@H]4C=C(c5cc6ncccc6c(=O)[nH]5)CC4)CC3)ccc21 [Compound 31, (R)-7-(3-(4-(1-oxo-1,3-dihydroisobenzofuran-5-yl)piperazin-1-yl)cyclopent-1-en-1-yl)-1,6-naphthyridin-5(6H)-one] fall in the same range of IC50: 0.5 to 5 nM for the first, 0.5 to 5 nM for the second.

N#Cc1cnc(N2CCN([C@H]3C=C(c4cc5ncccc5c(=O)[nH]4)CC3)CC2)s1 [Compound 35, (R)-2-(4-(3-(5-oxo-5,6-dihydro-1,6-naphthyridin-7-yl)cyclopent-2-en-1-yl)piperazin-1-yl)thiazole-5-carbonitrile] and N#Cc1ccc(N2CCN([C@H]3C=C(c4cc5ncccc5c(=O)[nH]4)CC3)CC2)nc1 [Compound 34, (R)-6-(4-(3-(5-oxo-5,6-dihydro-1,6-naphthyridin-7-yl)cyclopent-2-en-1-yl)piperazin-1-yl)nicotinonitrile] fall in the same range of IC50: 0.5 to 5 nM for the first, 0.5 to 5 nM for the second.

O=c1[nH]c(C2=C[C@H](N3CCN(c4ccc5c(c4)CCC5)CC3)CC2)cc2ncccc12 [Compound 30, (R)-7-(3-(4-(2,3-dihydro-1H-inden-5-yl)piperazin-1-yl)cyclopent-1-en-1-yl)-1,6-naphthyridin-5(6H)-one] and O=C1CCc2cc(N3CCN([C@H]4C=C(c5cc6ncccc6c(=O)[nH]5)CC4)CC3)ccc21 [Compound 29, (R)-7-(3-(4-(1-oxo-2,3-dihydro-1H-inden-5-yl)piperazin-1-yl)cyclopent-1-en-1-yl)-1,6-naphthyridin-5(6H)-one] fall in the same range of IC50: 0.5 to 5 nM for the first, 0.5 to 5 nM for the second.

N#Cc1ccc(N2CCN([C@H]3C=C(c4cc5ncc(F)cc5c(=O)[nH]4)CC3)CC2)cc1 [Compound 2, (R)-4-(4-(3-(3-fluoro-5-oxo-5,6-dihydro-1,6-naphthyridin-7-yl)cyclopent-2-en-1-yl)piperazin-1-yl)benzonitrile] and Cc1ccc2c(=O)[nH]c(C3=C[C@H](N4CCN(c5ccc(C#N)cc5)CC4)CC3)cc2n1 [Compound 6, (R)-4-(4-(3-(2-methyl-5-oxo-5,6-dihydro-1,6-naphthyridin-7-yl)cyclopent-2-en-1-yl)piperazin-1-yl)benzonitrile] fall in the same range of IC50: 0.5 to 5 nM for the first, 0.5 to 5 nM for the second.

N#Cc1ccc(N2CCN([C@H]3C=C(c4[nH]c(=O)c5cccnc5c4[N+](=O)[O-])CC3)CC2)cc1 [Compound 8, (R)-4-(4-(3-(8-nitro-5-oxo-5,6-dihydro-1,6-naphthyridin-7-yl)cyclopent-2-en-1-yl)piperazin-1-yl)benzonitrile] and N#Cc1ccc(N2CCN([C@H]3C=C(c4cc5cnccc5c(=O)[nH]4)CC3)CC2)cc1 [Compound 36, (R)-4-(4-(3-(1-oxo-1,2-dihydro-2,6-naphthyridin-3-yl)cyclopent-2-en-1-yl)piperazin-1-yl)benzonitrile] fall in the same range of IC50: 0.5 to 5 nM for the first, 0.5 to 5 nM for the second.

N#Cc1ccc(N2CCN([C@H]3C=C(c4cc5scnc5c(=O)[nH]4)CC3)CC2)cc1 [Compound 44, (R)-4-(4-(3-(4-oxo-4,5-dihydrothiazolo[4,5-c]pyridin-6-yl)cyclopent-2-en-1-yl)piperazin-1-yl)benzonitrile] and N#Cc1ccc(N2CCN([C@H]3C=C(c4cc5sccc5c(=O)[nH]4)CC3)CC2)cc1 [Compound 42, (R)-4-(4-(3-(4-oxo-4,5-dihydrothieno[3,2-c]pyridin-6-yl)cyclopent-2-en-1-yl)piperazin-1-yl)benzonitrile] fall in the same range of IC50: 0.5 to 5 nM for the first, 0.5 to 5 nM for the second.

First: O=c1[nH]c(C2=C[C@H](N3CCN(c4ccc(C(F)(F)F)cc4)CC3)CC2)cc2ncccc12 [Compound 33, (R)-7-(3-(4-(4-(trifluoromethyl)phenyl)piperazin-1-yl)cyclopent-1-en-1-yl)-1,6-naphthyridin-5(6H)-one]
Second: N#Cc1ccc(N2CCN([C@H]3C=C(c4cc5ncsc5c(=O)[nH]4)CC3)CC2)c(F)c1 [Compound 52, (R)-3-fluoro-4-(4-(3-(4-oxo-4,5-dihydrothiazolo[5,4-c]pyridin-6-yl)cyclopent-2-en-1-yl)piperazin-1-yl)benzonitrile]
The IC50 of the first is higher: 5.1 to 50 nM for the first, 0.5 to 5 nM for the second. The second is the more potent here.
